Entries after “also recorded” stand apart in the source; their conditions may differ. One block for each compound: values may come before it.
Key:
[1] = target: Recombinant full-length Sirt1 (human) (UniProt Q96EB6); assay: cross-linking
Sirt1 = details: ref [17]; cited from earlier work
recombinant Sirt1 = assay: inhibition/competition of p53 ABP labeling of recombinant Sirt1; assay type: binding, human
Sirt2 = details: cited from earlier work
[2] = system: Sirt1 (overexpressed) in HEK293T lysates; assay: p53 ABP labeling of Sirt1 in HEK293T lysates overexpressing Sirt1; assay type: binding; details: 500 μM inhibitor; 5 μM p53 ABP, 50 μg lysate, 500 μM NAD^+

Chain of UniProt Q96EB6 (Q96EB6 whole entry): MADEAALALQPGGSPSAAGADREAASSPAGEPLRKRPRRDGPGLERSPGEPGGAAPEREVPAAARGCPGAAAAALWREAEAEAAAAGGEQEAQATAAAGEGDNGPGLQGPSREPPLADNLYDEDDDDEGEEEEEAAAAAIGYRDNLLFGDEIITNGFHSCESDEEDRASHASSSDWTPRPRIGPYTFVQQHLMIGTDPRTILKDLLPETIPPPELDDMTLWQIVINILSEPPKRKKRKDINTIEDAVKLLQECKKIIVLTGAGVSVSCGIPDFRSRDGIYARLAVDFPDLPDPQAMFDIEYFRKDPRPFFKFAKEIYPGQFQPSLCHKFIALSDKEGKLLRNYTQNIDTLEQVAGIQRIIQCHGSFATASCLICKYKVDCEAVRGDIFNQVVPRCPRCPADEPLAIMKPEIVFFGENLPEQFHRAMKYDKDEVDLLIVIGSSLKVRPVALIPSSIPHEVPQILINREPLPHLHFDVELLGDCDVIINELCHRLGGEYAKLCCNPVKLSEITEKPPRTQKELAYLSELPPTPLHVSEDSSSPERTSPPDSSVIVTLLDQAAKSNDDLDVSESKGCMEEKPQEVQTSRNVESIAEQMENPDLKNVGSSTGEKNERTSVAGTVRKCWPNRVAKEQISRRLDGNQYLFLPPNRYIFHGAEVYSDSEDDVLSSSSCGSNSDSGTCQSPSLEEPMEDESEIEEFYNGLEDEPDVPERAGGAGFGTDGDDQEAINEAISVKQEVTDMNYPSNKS

- fold increase of labelling with NAD+ over without NAD+ [1]: 4 fold
Compound: 8-mer thioacetyl-lysine p53 peptide, (diazirine)-RHKK(thioacetyl)LMF-(propargylglycine)-NH2

Compound: N[C@@H](CCC(=O)N[C@@H](CSN=O)C(=O)NCC(=O)O)C(=O)O [GSNO, S-nitrosoglutathione]
- Sirt1 deacetylase activity upon S-nitrosation (Sirt1): complete loss of deacetylase activity
- effect on p53 ABP labeling of recombinant Sirt1, GSNO pretreatment (recombinant Sirt1; 100 μM GSNO, presence and absence of 500 μM NAD^+): A dramatic loss of Sirt1 labeling

Compound: Cc1cc(C)nc(SCC(=O)Nc2ncc(Cc3cccc4ccccc34)s2)n1 [SirReal2]
- Sirt2 selectivity of SirReal2 (Sirt2; ref [48]): Sirt2-selective
- change of p53 ABP labeling of Sirt1 [2]: no reduction in activity-based labeling of Sirt1; also recorded: a slight increase in activity-based labeling of Sirt1

Compound: CCCCCCCCCCCCCC(=S)NCCCCC(NC(=O)OCc1ccccc1)C(=O)Nc1ccccc1 (centres unmarked) [TM]
- Sirt2 selectivity of TM (Sirt2; ref [22]): Sirt2-selective
- change of p53 ABP labeling of Sirt1 [2]: no reduction in activity-based labeling of Sirt1

- concentration needed to compete with p53 ABP labeling versus Kd (recombinant Sirt1; 0.2–500 μM, competitor reversible, p53 ABP labeling covalent and irreversible): exceeds the Kd values
Compound: H2N-RHKK(trifluoroacetyl)LMF-NH2 [p53tfa]

From publication PMC7686039 (Bioorganic chemistry, 2020)
